The source of these data is patent US12662451B2, “Chemical compounds and uses thereof” (GLAXOSMITHKLINE INTELLECTUAL PROPERTY (NO.4) LIMITED, priority 2023, dated 2026).

Counter-ions that a name gives are not always drawn. Like-named read-outs stand apart in the source and are kept apart here.

The subject of data set [1] is SW48 human colorectal cancer cells. The data set can be described thus: Calculated free drug potency in SW48 cell assay, corrected with media free fraction (Example C). The class given is cell-based. As to conditions: for CC50: Homo sapiens, SW48, SW48 pCC50 corrected with measured free fraction in cell assay media. The essentials: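 Compound spiked at nominal 1 μM into cell assay medium and dialysed against PBS (100 mM sodium phosphate, 150 mM NaCl, pH 7.4) by rapid equilibrium dialysis, 4 h, 37 °C, shaking. Percent unbound from LC-MS/MS peak area ratios (240 min vs 0 min); cell assay concentrations corrected by this free fraction.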

For data set [2], the target named is T1, recombinant full-length WRN protein (1-1432) (Homo sapiens, UniProt Q14191).
T1 construct: recombinant full-length WRN protein (1-1432)
T1 sequence (Q14191 whole entry): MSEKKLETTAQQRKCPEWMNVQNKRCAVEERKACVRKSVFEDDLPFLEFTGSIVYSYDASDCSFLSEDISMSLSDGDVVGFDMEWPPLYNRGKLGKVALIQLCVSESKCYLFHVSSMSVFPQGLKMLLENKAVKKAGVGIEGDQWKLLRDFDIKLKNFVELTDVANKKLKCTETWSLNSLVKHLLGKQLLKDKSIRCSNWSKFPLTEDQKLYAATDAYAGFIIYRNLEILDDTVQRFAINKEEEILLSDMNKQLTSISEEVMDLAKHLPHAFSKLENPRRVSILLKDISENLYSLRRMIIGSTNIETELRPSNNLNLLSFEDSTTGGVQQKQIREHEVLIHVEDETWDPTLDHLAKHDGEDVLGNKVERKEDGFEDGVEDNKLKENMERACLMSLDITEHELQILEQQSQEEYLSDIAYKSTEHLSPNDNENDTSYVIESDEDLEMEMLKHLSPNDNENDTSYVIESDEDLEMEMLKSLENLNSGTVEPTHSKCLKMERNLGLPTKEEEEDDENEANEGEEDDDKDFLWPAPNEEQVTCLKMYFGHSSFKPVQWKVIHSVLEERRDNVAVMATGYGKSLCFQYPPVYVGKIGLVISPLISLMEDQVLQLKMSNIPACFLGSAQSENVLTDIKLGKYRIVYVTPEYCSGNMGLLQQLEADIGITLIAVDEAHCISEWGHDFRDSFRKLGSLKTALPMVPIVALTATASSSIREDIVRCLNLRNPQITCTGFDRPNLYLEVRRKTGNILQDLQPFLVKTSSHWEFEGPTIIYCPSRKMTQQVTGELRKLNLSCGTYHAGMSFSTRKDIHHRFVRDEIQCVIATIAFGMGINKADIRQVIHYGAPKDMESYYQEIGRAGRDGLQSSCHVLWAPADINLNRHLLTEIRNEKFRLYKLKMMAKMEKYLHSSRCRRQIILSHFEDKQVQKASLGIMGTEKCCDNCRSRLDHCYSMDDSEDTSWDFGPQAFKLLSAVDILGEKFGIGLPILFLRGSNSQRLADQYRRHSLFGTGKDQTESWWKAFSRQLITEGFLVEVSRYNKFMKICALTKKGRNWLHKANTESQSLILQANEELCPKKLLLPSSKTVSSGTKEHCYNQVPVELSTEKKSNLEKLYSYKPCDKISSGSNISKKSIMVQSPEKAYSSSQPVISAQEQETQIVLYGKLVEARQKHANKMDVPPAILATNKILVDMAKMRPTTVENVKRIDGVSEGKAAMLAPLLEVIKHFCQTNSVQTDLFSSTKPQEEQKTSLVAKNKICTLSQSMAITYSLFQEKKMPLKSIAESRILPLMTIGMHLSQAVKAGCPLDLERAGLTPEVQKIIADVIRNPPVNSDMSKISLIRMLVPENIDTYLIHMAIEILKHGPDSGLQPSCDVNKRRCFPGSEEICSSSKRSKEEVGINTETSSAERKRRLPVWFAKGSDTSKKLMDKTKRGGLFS
The data set can be described thus: WRN unwinding activity, fluorogenic 384-well assay (Example A). The class given is biochemical. As to conditions: WRN unwinding activity, 4 hr; Table 2; read-out: 4 hr UNW pIC50 (converted). The method in brief: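 200 pM enzyme (2× stock) preincubated with compound 4 h at ambient temperature, then 200 μM ATP and 12 nM quenched TAMRA-labelled dsDNA (2× stocks) added for 60 min; EDTA-quenched. Buffer 25 mM Tris pH 8.0, 5 mM NaCl, 2 mM MgCl2. Fluorescence at 525/598 nm; pIC50 from four-parameter fit.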

Data set [3] has as its system SW48 human colorectal cancer cells (MSI-H cancer cells). The data set can be described thus: SW48 cell viability, CellTiter-Glo, 120 hours (Example B). As to conditions: for CC50: Homo sapiens.
Data set [4] in a line: Cell culture media unbound percentage and stability by rapid equilibrium dialysis (Example C). The data set is classed as in vitro ADME. As to conditions: bovine, cell assay medium (RPMI-1640 with 10% fetal bovine serum), pH 7.4, rapid equilibrium dialysis, 4 hours at 37° C., read-out: Cell Culture Media Binding (% unbound). As to the method: It was observed that the compounds of the present disclosure are bound to cell assay media to various degrees, which would affect the cellular potency analysis in Example B. To measure free drug potency, concentrations used in the cell assays were corrected with the measured free fraction determined in the cell assay media. Compounds were incubated in a rapid equilibrium dialysis (RED) at a nominal concentration of 1 μM, using a dialysis buffer of phosphate-buffered saline (PBS, 100 mM sodium phosphate+150 mM sodium chloride, pH 7.4). The test compound was spiked into the medium. Aliquots were added to the donor wells of a RED plate in triplicate, and blank PBS was added to each receiver well, at volumes recommended by the manufacturer. Plates were incubated with shaking at 200 rpm for 4 hours at 37° C. The resultant samples were analysed by LC-MS/MS using a specific and sensitive method. Results were reported as analyte:internal standard peak area ratios (PARs), and the percent unbound was calculated with the following equation:
[formula] where D=the matrix dilution factor (D=1 for media); Apparent Fu=Crec/Cdon; Crec=PAR in receiver samples; Cdon=PAR in donor samples. Percent stability was calculated by:
[formula] where Cfinal=PAR in the T=240 minute sample; Cinitial=PAR in the T=0 minute sample. Cell culture media unbound percentage and calculated free drug potency of selected compounds along with their measured potency from Example B are shown in Table 3.

Setting [5] is: SW48, 120 h, read-out: SW48 pCC50, SW48 cell viability, 120 hours incubation (converted), Table 2.
Setting [6] is: SW48, read-out: SW48 pCC50, measured potency from Example B, as repeated in Table 3 (converted).

Regarding `Cc1nc2cc(S(=O)(=O)N(C)c3ccc([C@H]4C[C@@H](N5CCCC(F)(F)C5)C[C@@H](C(=O)Nc5ccc(C(F)(F)F)cc5F)[C@@H]4C(=O)O)cc3)ccc2n1C` (relative stereo) [Example 353, rel-(1R,2R,4R,6S)-4-(3,3-difluoropiperidin-1-yl)-2-((2-fluoro-4-(trifluoromethyl)phenyl)carbamoyl)-6-(4-((N,1,2-trimethyl-1H-benzo[d]imidazole)-5-sulfonamido)phenyl)cyclohexane-1-carboxylic acid], the CC50 was 4.47 nM in data set [1], 39.8 nM in data set [3] (setting [5]) and 39.8 nM in data set [3] (setting [6]). For the same compound, in data set [2], the IC50 was 1.58 nM. In addition, the fraction unbound at 4 h, 1 µM in data set [4] came to 0.113.
As for `CCO[C@@H]1C[C@H](c2ccc(N(C)S(=O)(=O)c3ccc4c(c3)nc(Cl)n4C)cc2)[C@@H](C(=O)O)[C@H](C(=O)Nc2ccc(C(F)(F)F)cc2F)C1` (relative stereo) [Example 361, rel-(1R,2S,4R,6R)-2-(4-((2-chloro-N,1-dimethyl-1H-benzo[d]imidazole)-5-sulfonamido)phenyl)-4-ethoxy-6-((2-fluoro-4-(trifluoromethyl)phenyl)carbamoyl)cyclohexane-1-carboxylic acid], the CC50 in data set [1] is 31.6 nM; in data set [3] (setting [5]) it was 501 nM; in data set [3] (setting [6]) it was 501 nM. Further, the IC50 in data set [2] was 1.58 nM. Moreover, the fraction unbound at 4 h, 1 µM in data set [4] turned out to be 0.0632.
`Cc1nc2cc(S(=O)(=O)N(C)c3ccc([C@H]4CC(F)(F)C[C@@H](C(=O)Nc5ccc(C(F)(F)F)cc5F)[C@@H]4C(=O)O)cc3)ccc2n1C` (relative stereo) [Example 363, rel-(1R,2R,6S)-4,4-difluoro-2-((2-fluoro-4-(trifluoromethyl)phenyl)carbamoyl)-6-(4-((N,1,2-trimethyl-1H-benzo[d]imidazole)-5-sulfonamido)phenyl)cyclohexane-1-carboxylic acid]: the CC50 in data set [1] is 17 nM; in data set [3] (setting [5]), 79.4 nM; in data set [3] (setting [6]) it was 79.4 nM. Moreover, the IC50 in data set [2] is 3.16 nM. For the same compound, the fraction unbound at 4 h, 1 µM in data set [4] was 0.216.
For the compound `Cc1nc2cc(S(=O)(=O)N(C)c3ccc([C@H]4C[C@@H](CS(C)(=O)=O)C[C@@H](C(=O)Nc5ccc(C(F)(F)F)cc5F)[C@@H]4C(=O)O)cc3)ccc2n1C` (relative stereo) [Example 395, rel-(1R,2R,4R,6S)-2-((2-fluoro-4-(trifluoromethyl)phenyl)carbamoyl)-4-((methylsulfonyl)methyl)-6-(4-((N,1,2-trimethyl-1H-benzo[d]imidazole)-5-sulfonamido)phenyl)cyclohexane-1-carboxylic acid], the figures for the CC50 in data set [1], in data set [3] (setting [5]) and in data set [3] (setting [6]) were 87.1 nM, 1000 nM and 1000 nM, respectively. Besides, the IC50 in data set [2] is 1.58 nM. Further, the fraction unbound at 4 h, 1 µM in data set [4] is 0.0875.
On to `Cc1nc2cc(S(=O)(=O)N(C)c3ccc([C@@H]4C[C@H](N5CC6(F)CC5C6)C[C@H](C(=O)Nc5ccc(C(F)(F)F)cc5F)[C@H]4C(=O)O)cc3)ccc2n1C` (relative stereo) [Example 397, rel-(1R,2R,4R,6S)-2-((2-fluoro-4-(trifluoromethyl)phenyl)carbamoyl)-4-(4-fluoro-2-azabicyclo[2.1.1]hexan-2-yl)-6-(4-((N,1,2-trimethyl-1H-benzo[d]imidazole)-5-sulfonamido)phenyl)cyclohexane-1-carboxylic acid], for which the CC50 in data set [1] was 16.6 nM; in data set [3] (setting [5]), 316 nM; in data set [3] (setting [6]) it was 316 nM. In data set [2], the IC50 is 1.58 nM. For the same compound, in data set [4], the fraction unbound at 4 h, 1 µM was determined as 0.0527.
On to `Cc1nc2cc(S(=O)(=O)N(C)c3ccc([C@H]4C[C@H](N5CC6(F)CC5C6)C[C@@H](C(=O)Nc5ccc(C(F)(F)F)cc5F)[C@@H]4C(=O)O)cc3)ccc2n1C` (relative stereo) [Example 400, rel-(1R,2R,4S,6S)-2-((2-fluoro-4-(trifluoromethyl)phenyl)carbamoyl)-4-(4-fluoro-2-azabicyclo[2.1.1]hexan-2-yl)-6-(4-((N,1,2-trimethyl-1H-benzo[d]imidazole)-5-sulfonamido)phenyl)cyclohexane-1-carboxylic acid], for which the CC50 in data set [1] was 389 nM; in data set [3] (setting [5]) it was 7940 nM; in data set [3] (setting [6]), 7940 nM. In addition, in data set [2], the IC50 is 20 nM. Besides, in data set [4], the fraction unbound at 4 h, 1 µM was 0.049.
`CN(c1ccc([C@H]2CCC[C@@H](C(=O)Nc3ccc(C(F)(F)F)cc3F)[C@@H]2C(=O)O)cc1)S(=O)(=O)c1ccc2c(c1)ncn2C` (single isomer, unassigned) [Example 88]: the results for the CC50 in data set [1], in data set [3] (setting [5]) and in data set [3] (setting [6]) were 11.7 nM, 398 nM and 398 nM, respectively. Further, the IC50 in data set [2] is 2.51 nM. Moreover, in data set [4], the fraction unbound at 4 h, 1 µM was determined as 0.0297.
`CC(=O)N1CCc2cc(S(=O)(=O)N(C)c3ccc([C@H]4CCC[C@@H](C(=O)Nc5ccc(C(F)(F)F)cc5F)[C@@H]4C(=O)O)cc3)ccc21` (single isomer, unassigned) [Example 90]: the CC50 in data set [1] is 69.2 nM; in data set [3] (setting [5]) it was 1260 nM; in data set [3] (setting [6]) it was 1260 nM. Besides, in data set [2], the IC50 was 3.98 nM. For the same compound, the fraction unbound at 4 h, 1 µM in data set [4] amounted to 0.0553.
As to `Cc1nc2cc(S(=O)(=O)N(C)c3ccc([C@H]4C[C@@H]5OCC[C@@H]5[C@@H](C(=O)Nc5ccc(C(F)(F)F)cc5F)[C@@H]4C(=O)O)cc3)ccc2n1C` (single isomer, unassigned) [Example 157], in data set [1] (SW48 pCC50 corrected with measured free fraction in cell assay media), the “Free Drug SW48 pCC50” value was 7.50. The IC50 in data set [2] is 2.51 nM. For the same compound, the “SW48 pCC50” value in data set [3] (SW48 cell viability, 120 hours incubation, Table 2) stood at 6.9; in data set [3] (measured potency from Example B, as repeated in Table 3) it was 6.9. Also, the fraction unbound at 4 h, 1 µM in data set [4] came out at 0.242.
`Cc1nc2cc(S(=O)(=O)N(C)c3ccc([C@@H]4CCC[C@H](C(=O)Nc5c(F)cc(C(C)C)cc5F)[C@H]4C(=O)O)cc3)ccc2n1C` (single isomer, unassigned) [Example 171]: the CC50 in data set [1] was 50.1 nM; in data set [3] (setting [5]), 794 nM; in data set [3] (setting [6]), 794 nM. Besides, in data set [2], the IC50 was 3.16 nM. For the same compound, the fraction unbound at 4 h, 1 µM in data set [4] stood at 0.0634.
For the compound `CCO[C@@H]1C[C@H](c2ccc(N(C)S(=O)(=O)c3ccc4c(c3)nc(C)n4C)cc2)[C@@H](C(=O)O)[C@H](C(=O)Nc2ccc(C(F)(F)F)cn2)C1` (single isomer, unassigned) [Example 199], the CC50 in data set [1] is 79.4 nM; in data set [3] (setting [5]) it was 501 nM; in data set [3] (setting [6]), 501 nM. Besides, the IC50 in data set [2] was 2.51 nM. In addition, the fraction unbound at 4 h, 1 µM in data set [4] was 0.16.
On to `Cc1nc2cc(S(=O)(=O)N(C)c3ccc([C@@H]4CCC[C@H](COc5ccc(C(F)(F)F)cc5)[C@H]4C(=O)O)cc3)cc([C@@H]3CCCN(C)C3)c2n1C` (single isomer, unassigned) [Example 211, formic acid salt], for which the results for the CC50 in data set [1], in data set [3] (setting [5]) and in data set [3] (setting [6]) were 66.1 nM, 3160 nM and 3160 nM, respectively. The IC50 in data set [2] was 2 nM. The fraction unbound at 4 h, 1 µM in data set [4] was determined as 0.0208.
Take `Cc1nc2cc(S(=O)(=O)N(C)c3ccc([C@@H]4CCC[C@H](COc5ccc(C(F)(F)F)cc5)[C@H]4C(=O)O)cc3)cc([C@H]3CCCN(C)C3)c2n1C` (single isomer, unassigned) [Example 212]: the CC50 was 40.7 nM in data set [1], 2000 nM in data set [3] (setting [5]) and 2000 nM in data set [3] (setting [6]). Besides, the IC50 in data set [2] is 1.58 nM. Further, the fraction unbound at 4 h, 1 µM in data set [4] turned out to be 0.0205.
